# Calls of active or inactive are those of the source. The rule behind the calls is not given here.
# Legend:
# NRK [1] = experiment: Induction of morphological changes in rat NRK cells expressing K-ras assessed as flat morphology; format: functional, cell-based
# NRK [2] = experiment: Induction of morphological changes in rat NRK cells expressing K-ras-ts proto-oncogene assessed as flat morphology; format: functional, cell-based
# NRK [3] = experiment: Inhibition of protein synthesis in rat NRK cells expressing K-ras assessed as L-[4,5-3H]leucine incorporation after 1 hr; format: functional, cell-based
# NRK [4] = experiment: Inhibition of DNA synthesis in rat NRK cells expressing K-ras assessed as [methyl-3H]thymidine incorporation after 1 hr; format: functional, cell-based
# NRK [5] = experiment: Inhibition of RNA synthesis in rat NRK cells expressing K-ras assessed as [5-3H]uridine incorporation after 1 hr; format: functional, cell-based
# NRK [6] = experiment: Decrease in cellular Ras protein level in rat NRK cells expressing K-ras at 2.5 ng/mL after 1 to 3 days by immunoblotting; format: functional, cell-based
# NRK [7] = experiment: Induction of morphological changes in rat NRK cells expressing K-ras assessed as flat morphology and cytoskeletal organization at 10 to 30 ng/mL after 1 day; format: functional, cell-based
# NRK [8] = experiment: Induction of morphological changes in rat NRK cells expressing K-ras assessed as flat morphology and cytoskeletal organization at 10 to 30 ng/mL after 3 days; format: functional, cell-based
# NRK [9] = experiment: Growth inhibition of rat NRK cells expressing K-ras; format: functional, cell-based
# NIH3T3 [10] = experiment: Growth inhibition of mouse NIH/3T3 cells expressing K-ras; format: functional, cell-based
# NIH3T3 [11] = experiment: Growth inhibition of mouse NIH/3T3 cells expressing H-ras; format: functional, cell-based
# NIH3T3 [12] = experiment: Growth inhibition of mouse NIH/3T3 cells expressing N-ras; format: functional, cell-based
# NRK [13] = experiment: Growth inhibition of rat NRK cells; format: cell-based
# [14] = Growth inhibition of mouse NIH/3T3 cells; format: cell-based; conditions: NIH3T3
SMILES,Activity (NRK [1]),Activity (NRK [2]),Activity (NRK [3]),Activity (NRK [4]),Activity (NRK [5]),Activity (NRK [6]),Activity (NRK [7]),Activity (NRK [8]),IC50 (NRK [9]) [ng/mL],IC50 (NIH3T3 [10]) [ng/mL],IC50 (NIH3T3 [11]) [ng/mL],IC50 (NIH3T3 [12]) [ng/mL],IC50 (NRK [13]) [ng/mL],IC50 [14] [ng/mL]
CC[C@@]12CC(C(=O)OC)=C3Nc4cc5c(cc4[C@@]34CCN(C[C@H]3O[C@H]31)[C@@H]24)[C@@H]1[C@H](O5)[C@@H](O)[C@@]2(CC)CC(C(=O)OC)=C3Nc4c(cc(O)c(OC)c4OC)[C@@]34CCN1[C@@H]24,Active,Active,–,–,–,–,–,–,–,–,–,–,–,–
CC[C@@]12C=CCN3CC[C@]4(C(=C(C(=O)OC)C1)Nc1cc5c(cc14)[C@H]1[C@@H](O5)[C@H](O)[C@]4(CC)CC(C(=O)OC)=C5Nc6c(cc(O)c(OC)c6OC)[C@@]56CCN1[C@H]46)[C@H]32,Active,Active,–,–,–,–,–,–,–,–,–,–,–,–
COc1ccc([C@@]23Oc4cc(OC)cc(OC)c4[C@]2(O)c2nc4n(c(=O)c2[C@H]3c2ccccc2)CCC4)cc1,–,–,Active,inactive,inactive,Active,Active,Active,81,8.9,7.8,8,9.8,7.6
COc1c(C=O)c(O)cc2c1C(=O)c1ccccc1C2=O,Active,Active,–,–,–,–,–,–,–,–,–,–,–,–
COc1ccc([C@@]23Oc4cc(OC)cc(OC)c4[C@]2(O)[C@H](O)C[C@H]3c2ccccc2)cc1 [ROCAGLAOL],–,–,Active,inactive,inactive,Active,Active,Active,5.8,7,5.3,7.5,10,2
COc1ccc([C@@]23Oc4cc(OC)cc(OC)c4[C@]2(O)C2=C(C(=O)N4CCC[C@H]4N2)[C@H]3c2ccccc2)cc1 [AGLAIASTATIN],–,–,Active,inactive,inactive,Active,Active,Active,2.8,5.6,1,1.8,2.1,4.1
